From patent publication US12486304B2, “Peptide ligand targeting carbonic anhydrase IX, peptide construct comprising same, and uses thereof” (priority 2022, dated 2025)
*1 amine or outer side, *2 acyl side, *3 side chain or, on linkers, in order; H or OH if unused. Where a SMILES comes first, the peptide text is derived from it. [ ]: non-standard residue; d: D form. X1 = NS(=O)(=O)c1ccc(-c2cn(CCCC[C@H](N[*:1])C(=O)[*:2])nn2)cc1

Conditions: human, 168 h
Method: A solution of the peptide structure diluted to a final concentration of 50 μm in 1 mL of 100% pure human serum (Cat #S1, Merk) or plasma (Cat #70039.1, [sequence] Technologies) [or 100% pure mouse serum (Sigma, Cat #S7273) or plasma (Rockland, Cat #D508-06-0050)] was divided into 100 μL. Then, while stored at 37° C., analysis was performed once a day for 7 days using the LC-MS (1260 Infinity II, Infinity Lab LC/MSD, Aglient) equipped with the Agilent Poroshell 120 EC-C18 column (4.6×50 mm, 2.7 μm). Before injecting the sample into the LC, 100 μL of ACN was added to the serum or plasma solution containing the peptides, then put into the centrifuge and spun to settle the precipitate, and only 10 μL of the supernatant was used for analysis.

For `C[C@H](O)[C@H]1NC(=O)[C@@H](Cc2ccccc2)NC(=O)[C@@H](Cc2c[nH]cn2)NC(=O)[C@@H](Cc2ccccc2)NC(=O)[C@@H](CCCNC(=N)N)NC(=O)[C@@H](CCCNC(=N)N)NC(=O)[C@H](CCCCn2cc(-c3ccc(S(N)(=O)=O)cc3)nn2)NC(=O)[C@H](CCC(N)=O)NC(=O)CNC(=O)[C@@H](Cc2c[nH]cn2)NC1=O` [No. 35] (cyclo(Q[X1][dR][dR][dF][dH][dF][dT][dH]G)), the Stability in plasma was “not degraded at all and was completely maintained even after 6 days”.
